Test results taken from PubChem BioAssay AID192 (DTP/NCI, 2004).
“And” between values parts separate entries of the source, which are not always exact repeats. Equal entries are not always repeated. Toxic doses and inconclusive results are not listed. Rule for the calls: active = survival T/C of 150% or more; inactive = T/C below 125% in these data.

System: BDF1 mice, B16 melanoma ip, median survival T/C
Assay: NCI In Vivo Anticancer Drug Screen. Data for tumor model B16 Melanoma (intraperitoneal) in B6D2F1 (BDF1) mice
Details: endpoint: median survival time, higher = longer survival
In short: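 Values are ratios of treated (T) to vehicle-control (C) measurements of survival or tumor size in tumor-bearing mice.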

[1] = dose: 25.0 mg/kg/injection, schedule: Q01DX009 (ip), vehicle: Klucel (hydroxypropylcellulose) (HPC)
[2] = dose: 50.0 mg/kg/injection, schedule: Q01DX009 (ip), vehicle: Klucel (hydroxypropylcellulose) (HPC)
[3] = dose: 100.0 mg/kg/injection, schedule: Q01DX009 (ip), vehicle: Klucel (hydroxypropylcellulose) (HPC)
[4] = dose: 1.56 mg/kg/injection, schedule: Q01DX009 (ip), vehicle: Klucel (hydroxypropylcellulose) (HPC)
[5] = dose: 3.12 mg/kg/injection, schedule: Q01DX009 (ip), vehicle: Klucel (hydroxypropylcellulose) (HPC)
[6] = dose: 6.25 mg/kg/injection, schedule: Q01DX009 (ip), vehicle: Klucel (hydroxypropylcellulose) (HPC)
[7] = dose: 12.5 mg/kg/injection, schedule: Q01DX009 (ip), vehicle: saline
[8] = dose: 25.0 mg/kg/injection, schedule: Q01DX009 (ip), vehicle: saline
[9] = dose: 50.0 mg/kg/injection, schedule: Q01DX009 (ip), vehicle: saline
[10] = dose: 12.5 mg/kg/injection, schedule: Q01DX009 (ip), vehicle: saline with Tween-80
[11] = dose: 25.0 mg/kg/injection, schedule: Q01DX009 (ip), vehicle: saline with Tween-80
[12] = dose: 50.0 mg/kg/injection, schedule: Q01DX009 (ip), vehicle: saline with Tween-80
[13] = dose: 6.25 mg/kg/injection, schedule: Q01DX009 (ip), vehicle: saline with Tween-80
[14] = dose: 200.0 mg/kg/injection, schedule: Q01DX009 (ip), vehicle: Klucel (hydroxypropylcellulose) (HPC)
[15] = dose: 12.5 mg/kg/injection, schedule: Q01DX009 (ip), vehicle: Klucel (hydroxypropylcellulose) (HPC)
[16] = dose: 3.12 mg/kg/injection, schedule: Q01DX009 (ip), vehicle: saline

Measured: T/C

Cc1ccc(S(=O)(=O)N=N/C=C2/C=CC=CN2O)cc1
inactive: [1] 108 % of control | [2] 114 % of control | [3] 115 % of control

C=C(Cl)CN(CCCC(=O)O)c1cccc(OC)c1
inactive: dose: 100.0 mg/kg/injection, schedule: Q04DX003 (ip), vehicle: other 104 % of control | dose: 200.0 mg/kg/injection, schedule: Q04DX003 (ip), vehicle: other 96 % of control | dose: 400.0 mg/kg/injection, schedule: Q04DX003 (ip), vehicle: other 94 % of control

CS(=O)(=O)ON1C(=O)c2ccccc2C1=O
inactive: [4] 100 % of control | [5] 98 % of control | [6] 94 % of control

O=C(CCCN1CCN(c2ccccc2)CC1)c1ccc(F)cc1
inactive: [7] 112 % of control | [8] 115 % of control | [9] 107 % of control | dose: 100.0 mg/kg/injection, schedule: Q01DX009 (ip), vehicle: saline 102 % of control | dose: 200.0 mg/kg/injection, schedule: Q01DX009 (ip), vehicle: saline 100 % of control

FC(F)(F)c1ccc2c(c1)N(CCCN1CCN(CCOc3ccccc3)CC1)c1ccccc1S2
inactive: dose: 2.0 mg/kg/injection, schedule: Q01DX009 (ip), vehicle: saline 121 % of control

CC(=O)c1ccc2ccccc2c1O
inactive: [10] 107 % of control | [11] 93 % of control | [12] 106 % of control | dose: 100.0 mg/kg/injection, schedule: Q04DX003 (ip), vehicle: saline with Tween-80 100 % of control | dose: 200.0 mg/kg/injection, schedule: Q04DX003 (ip), vehicle: saline with Tween-80 110 % of control | dose: 400.0 mg/kg/injection, schedule: Q04DX003 (ip), vehicle: saline with Tween-80 100 % of control

[Cl][Pt+2][Cl].[NH-]C1CCC1.[NH-]C1CCC1
inactive: dose: 0.5 mg/kg/injection, schedule: Q01DX009 (ip), vehicle: saline with Tween-80 108 % of control | dose: 1.0 mg/kg/injection, schedule: Q01DX009 (ip), vehicle: saline with Tween-80 117 % of control | dose: 2.0 mg/kg/injection, schedule: Q01DX009 (ip), vehicle: saline with Tween-80 115 % of control | dose: 5.0 mg/kg/injection, schedule: Q01DX009 (ip), vehicle: Klucel (hydroxypropylcellulose) (HPC) 112 % of control

COc1cc2c(c(OC)c1OC)C(=O)/C(=C\c1ccccc1)O2
inactive: [13] 101 % of control | [10] 106 % of control | [11] 103 % of control | [12] 86 % of control

CCOC(=O)C(N)C[S][Sn]([CH3])([CH3])[Cl] (stereo unspecified)
inactive: [13] 105 % of control | [10] 88 % of control | [11] 100 % of control

CN(C)NCCN1CCN(CCCN2c3ccccc3Sc3ccc(C(F)(F)F)cc32)CC1
inactive: dose: 3.75 mg/kg/injection, schedule: Q01DX009 (ip), vehicle: saline 93 % of control | dose: 7.5 mg/kg/injection, schedule: Q01DX009 (ip), vehicle: saline 112 % of control

CCCCC(CC)C(O)C(C)C(C)O (stereo unspecified)
inactive: [3] 97 % of control | [14] 87 % of control

Cc1ccc(NC(=O)c2cccc(C(=O)Nc3ccc(C)cc3C)c2)c(C)c1
inactive: [15] 115 % of control | [1] 96 % of control | [2] 102 % of control

[Cl][Pt+2][Cl].[NH-]c1cc(Cl)c(Cl)c(Cl)c1[NH-]
inactive: dose: 1.25 mg/kg/injection, schedule: Q01DX009 (ip), vehicle: saline with Tween-80 98 % of control | dose: 2.5 mg/kg/injection, schedule: Q01DX009 (ip), vehicle: saline with Tween-80 104 % of control | dose: 5.0 mg/kg/injection, schedule: Q01DX009 (ip), vehicle: saline with Tween-80 103 % of control | dose: 10.0 mg/kg/injection, schedule: Q01DX009 (ip), vehicle: saline with Tween-80 110 % of control | dose: 20.0 mg/kg/injection, schedule: Q01DX009 (ip), vehicle: saline with Tween-80 113 % of control | dose: 40.0 mg/kg/injection, schedule: Q01DX009 (ip), vehicle: saline with Tween-80 117 % of control

O=C(O)CSc1nc(-c2ccccc2)c(-c2ccccc2)n1-c1ccccn1
inactive: dose: 12.5 mg/kg/injection, schedule: Q01DX009 (ip), vehicle: water 98 % of control | dose: 25.0 mg/kg/injection, schedule: Q01DX009 (ip), vehicle: water 97 % of control | dose: 50.0 mg/kg/injection, schedule: Q01DX009 (ip), vehicle: water 98 % of control | dose: 100.0 mg/kg/injection, schedule: Q01DX009 (ip), vehicle: water 98 % of control

O=CC1CO1 (stereo unspecified)
inactive: dose: 12.5 mg/kg/injection, schedule: Q01DX009 (ip), vehicle: saline sonified 90 % of control | dose: 25.0 mg/kg/injection, schedule: Q01DX009 (ip), vehicle: saline sonified 90 % of control | dose: 50.0 mg/kg/injection, schedule: Q01DX009 (ip), vehicle: saline sonified 97 % of control

N=C1SCc2ccc3ccccc3c21
inactive: [12] 99 % of control | dose: 100.0 mg/kg/injection, schedule: Q01DX009 (ip), vehicle: saline with Tween-80 97 % of control | dose: 200.0 mg/kg/injection, schedule: Q01DX009 (ip), vehicle: saline with Tween-80 91 % of control | dose: 400.0 mg/kg/injection, schedule: Q01DX009 (ip), vehicle: saline with Tween-80 89 % of control

CC(=O)CC(=O)N1CCC(C)CC1
inactive: [3] 110 % of control | [14] 112 % of control | dose: 400.0 mg/kg/injection, schedule: Q01DX009 (ip), vehicle: Klucel (hydroxypropylcellulose) (HPC) 115 % of control

CC1(C)N=C(N)N=C(N)N1c1cccc(CCCCc2ccc(Cl)c(S(=O)(=O)F)c2)c1
inactive: dose: 3.13 mg/kg/injection, schedule: Q01DX009 (ip), vehicle: Klucel (hydroxypropylcellulose) (HPC) 94 % of control | [6] 100 % of control | [15] 94 % of control

CCc1ccc2c(c1)N(CC(C)CN(C)C)c1ccccc1S2 (stereo unspecified)
inactive: dose: 0.78 mg/kg/injection, schedule: Q01DX009 (ip), vehicle: saline 105 % of control | dose: 1.56 mg/kg/injection, schedule: Q01DX009 (ip), vehicle: saline 87 % of control and 111 % of control | [16] 98 % of control and 108 % of control

O=S(CCCl)CCCl
inactive: [4] 95 % of control and 107 % of control | [5] 94 % of control and 103 % of control | [6] 111 % of control | [15] 99 % of control | [1] 89 % of control | [2] 91 % of control

COC(=O)C(c1ccccc1)C1CCCCN1 (stereo unspecified)
inactive: [16] 97 % of control | dose: 6.25 mg/kg/injection, schedule: Q01DX009 (ip), vehicle: saline 100 % of control | [7] 88 % of control | [8] 88 % of control | [9] 97 % of control
